From patent US8680290B2, “Isoxazoline derivatives and their use as herbicides” (Syngenta Limited, priority 2004, dated 2014)

Legend:
[1] = tested on: Monocotyledonous and dicotyledonous test plants; experiment: Example B1 herbicidal action, application pre-emergence (Table B1b); type: in vivo; settings: 250 g/ha, evaluated after 4 weeks
Procedure, shortened: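 Visual damage rating, 10 = plant dead and 0 = unharmed, taken at 3 weeks for post-emergence and 4 weeks for pre-emergence treatment. Application by spray of formulated aqueous solution either immediately after sowing or at 8–9 days' growth, with mono- and dicot plants kept in a greenhouse.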

melting point [°C]	SMILES	herbicidal action (damage rating 0-10), Amaranthus [1]	herbicidal action (damage rating 0-10), Digitaria [1]	herbicidal action (damage rating 0-10), Panicum [1]	herbicidal action (damage rating 0-10), Setaria [1]	herbicidal action (damage rating 0-10), Sida [1]
113	CC1(C)CC(S(=O)(=O)C(Cl)(CC=C(F)F)c2c(F)cccc2F)=NO1 (centres unmarked) [Compound No. 1.17, 3-[1-chloro-1-(2,6-difluoro-phenyl)-4,4-difluoro-but-3-ene-1-sulfonyl]-5,5-dimethyl-4,5-dihydroisoxazole]					
150	CC1(C)CC(S(=O)(=O)C(C(=O)NC2CC2)c2c(F)cccc2F)=NO1 (centres unmarked) [Compound No. 1.35, N-cyclopropyl-2-(2,6-difluoro-phenyl)-2-(5,5-dimethyl-4,5-dihydroisoxazole-3-sulfonyl)-acetamide]					
117	C=CC1CC1(c1c(F)cccc1F)S(=O)(=O)C1=NOC(C)(C)C1 (centres unmarked) [Compound No. 1.46, 3-[1-(2,6-difluoro-phenyl)-2-vinylcylopropane-sulfonyl]-5,5-dimethyl-4,5-dihydroisoxazole]	3	6	5	3	0
102	COCC(c1c(F)cccc1F)S(=O)(=O)C1=NOC(C)(C)C1 (centres unmarked) [Compound No. 1.51, 3-[1-(2,6-difluoro-phenyl)-2-methoxy-ethanesulfonyl]-5,5-dimethyl-4,5-dihydroisoxazole]	8	9	9	8	0
91 to 93	CC1(C)CC(S(=O)(=O)C(C)(F)c2ccccc2)=NO1 (centres unmarked) [Compound No. 1.138, 3-(1-fluoro-1-phenyl-ethanesulfonyl)-5,5-dimethyl-4,5-dihydroisoxazole]					
105 to 107	Cn1nc(C(F)(F)F)c(C(F)S(=O)(=O)C2=NOC(C)(C)C2)c1OC1COC1 (centres unmarked) [Compound No. 2.27, 3-{fluoro-[1-methyl-5-(oxetan-3-yloxy)-3-trifluoromethyl-1H-pyrazol-4-yl]-methanesulfonyl}-5,5-dimethyl-4,5-dihydroisoxazole]					
72	Cc1noc(C2CC2)c1C(Cl)(Cl)S(=O)(=O)C1=NOC(C)(C)C1 [Compound No. 3.06, 5-cyclopropyl-4-[dichloro-(5,5-dimethyl-4,5-dihydroisoxazole-3-sulfonyl)methyl]-3-methyl-isoxazole]					
117 to 118	Cn1cc(C(F)(F)F)c(C(F)S(=O)(=O)C2=NOC(C)(C)C2)n1 (centres unmarked) [Compound No. 4.04, 3-[fluoro-(1-methyl-4-trifluoromethyl-1H-pyrazol-3-yl)-methanesulfonyl]-5,5-dimethyl-4,5-dihydroisoxazole]					
101 to 103	Cn1cc(C(F)(F)F)c(C(F)(F)S(=O)(=O)C2=NOC(C)(C)C2)n1 [Compound No. 4.05, 3-[difluoro-(1-methyl-4-trifluoromethyl-1H-pyrazol-3-yl)-methanesulfonyl]-5,5-dimethyl-4,5-dihydro-isoxazole]					
118	COc1cc(C(Cl)(Cl)S(=O)(=O)C2=NOC(C)(C)C2)on1 [Compound No. 5.02, 5-[dichloro-(5,5-dimethyl-4,5-dihydroisoxazole-3-sulfonyl)-methyl]-3-methoxy-isoxazole]					
70 to 75	Cc1c(Br)noc1C(F)(F)S(=O)(=O)C1=NOC(C)(C)C1 [Compound No. 5.06, 3-bromo-5-[(5,5-dimethyl-4,5-dihydroisoxazole-3-sulfonyl)-difluoro-methyl]-4-methyl-isoxazole]					

SMILES	melting point [°C]	herbicidal action (damage rating 0-10), Amaranthus [1]	herbicidal action (damage rating 0-10), Digitaria [1]	herbicidal action (damage rating 0-10), Panicum [1]	herbicidal action (damage rating 0-10), Setaria [1]	herbicidal action (damage rating 0-10), Sida [1]
Cc1onc(C2CC2)c1C(Cl)S(=O)(=O)C1=NOC(C)(C)C1 (centres unmarked) [Compound No. 3.07, 4-[chloro-(5,5-dimethyl-4,5-dihydroisoxazole-3-sulfonyl)methyl]-3-cyclopropyl-5-methyl-isoxazole]	159	4	9		8	2
